Converted amounts (≈) assume the structure as drawn. Where two headings read alike, the source gives them in different places.

The values below come from patent publication US10583087B2, “Pharmaceutical composition for oral administration” (ASTELLAS PHARMA INC., priority 2015, dated 2020).

Series [1] can be described thus: Solubility of compound A in JP dissolution test fluids. Format: physicochemical.
Series [2] is described as follows: Behaviour of compound A upon contact with a solvent (gelation). Format: physicochemical. The settings on record: solvent such as water.

Regarding `CC[C@@H]1CCCN1Cc1sc(NC(=O)c2cnc(N3CCC(C(=O)O)CC3)cn2)nc1-c1ccc(OC)c(C(F)(F)F)c1` [Compound A, 1-{5-[(5-{[(2R)-2-ethylpyrrolidin-1-yl]methyl}-4-[4-methoxy-3-(trifluoromethyl)phenyl]-1,3-thiazol-2-yl)carbamoyl]pyrazin-2-yl}pyperidine-4-carboxylic acid], the “pH dependence of solubility” value in series [1] was “pH-dependent”. Besides, the solubility (in general, the dissolved amount per volume that the medium holds) in series [1] (aqueous buffer, second fluid for a dissolution test of the Japanese Pharmacopoeia, JP2 (pH 6.8), read-out: solubility in a neutral pH range) is roughly 17.8 µg/mL (≈ 28.8 µM); in series [1] (simulated gastric fluid, first fluid for a dissolution test of the Japanese Pharmacopoeia, JP1 (pH 1.2), read-out: solubility in an acidic pH range), roughly 44.1 µg/mL (≈ 71.3 µM). Moreover, the “gelation upon contact with a solvent” value in series [2] is given as “gelled upon contact with a solvent”.
